Measurements as given in PubChem BioAssay AID2008 (University of Pittsburgh Molecular Library Screening Center, 2009).
pEC50: −log10 of the molar value. Calls of active or inactive are those of the source. How the calls were made is not given here.

The compounds below were run on Leishmania major promastigote growth inhibition (assay: antileishmanial activity against L. major promastigotes – EC50, dose response (AID 2008)).

Compound | pEC50 | EC50
COc1ccc(/C=C/c2cc[n+](C(=O)Cc3ccccc3)cc2)cc1 | 7.30 | 
CCN(CC)C(=S)SSC(=S)N(CC)CC | 6.58 | 
CCCCS(=O)(=O)/C=C\C=C/S(=O)(=O)CCCC | 5.82 | 
COC(=O)c1ccc2c(c1)C(C)(C)C(/C=C/c1ccc(OC)c(OC)c1OC)=[N+]2C | 8.61 | 
CN(CCN1CCc2ccccc2C1)Cc1nc(Cc2ccccc2F)no1 | 5.85 | 
c1cnc2c(c1)ccc1cccnc12 |  | > 5000 nM (inactive)
Cn1c(=O)c2nc(-c3ccccc3)oc2c2ccccc21 | 5.73 | 
COc1ccc(Cn2c(-c3ccc(OC)cc3)nc3ccccc32)cc1 | 5.95 | 
CC1=C(C(=O)Nc2cc(-c3cccc(F)c3)[nH]n2)C2(CCCCC2)OC1=O | 6.42 | 
N#CC(c1cccc(Cl)c1)c1ccc2c(C(F)(F)F)cc(C(F)(F)F)nc2n1 (configuration not stated) | 5.93 | 
Cc1cccc(-c2cc3c(N=O)c4ccccc4c-3n[nH]2)c1 | 5.81 | 
C[C@@]1(CO)[C@H](O)CC[C@@]2(C)[C@H]1CC[C@H]1C[C@@H]3C[C@@]12CC[C@]3(O)CO | 6.92 | 
O=C1C2CCN(CC2)C1Cc1ccc(OCCOc2ccccc2)cc1 (configuration not stated) | 6.57 | 
Cc1ccc(-c2cc(-c3ccc(C)cc3)[n+](C)o2)cc1 | 6.74 | 
CN(C)C(=S)SSC(=S)N(C)C | 7.01 | 
O=[N+]([O-])c1cc([N+](=O)[O-])c2n[nH]c(-c3ccccc3)c2c1 | 6.40 | 
COC(=O)c1cc2ccsc2n1Cc1nc(-c2ccc(OC)cc2)oc1C | 6.98 | 
CCCOC(=O)CSC1=C(C#N)C(c2ccccc2Cl)CC(=O)N1 (configuration not stated) | 6.91 | 
Cc1ccc2c(c1)-c1cc(C)nn1C(c1ccc3c(c1)OCO3)N2 (configuration not stated) | 5.80 | 

Compound | pEC50 | EC50
N#Cc1cc(Oc2ccc3ccccc3c2)c(-n2nnc3ccccc32)cc1C#N |  | > 5000 nM (inactive)
Cc1ccc(OCCCCn2ccnc2)c(Cl)c1 | 6.88 | 
COC(=O)c1ccc(COc2ccc(C3C4=C(CCCC4=O)Nc4onc(C)c43)cc2)cc1 (configuration not stated) | 5.81 | 
CCc1ccc(NSc2ccccc2[N+](=O)[O-])cc1 | 6.13 | 
COc1ccc(C2=NCC(CSc3nnc(-c4ccc5c(c4)OCO5)o3)S2)cc1 (configuration not stated) | 6.73 | 
Cc1nn(-c2nc3ccccc3[nH]2)c(N)c1-c1ccc(Cl)cc1 | 5.81 | 
Cc1ccccc1NC1=C/C(=N\S(=O)(=O)c2cccs2)c2ccccc2C1=O | 6.68 | 
c1ccc(CNc2nc(-c3cccs3)nc3ccccc23)cc1 | 5.67 | 
[O-][N+]1=c2ccc(Nc3ccccc3)cc2=NC12CCCCC2 | 6.08 | 
CC(C)(C)c1ccc(C(=O)C2CCCN(C3CCC3)C2)cc1 (configuration not stated) | 7.97 | 
CCOCCN1CCN(c2nnc3n2-c2ccc(Cl)cc2C(c2ccccc2Cl)=NC3)CC1 | 5.93 | 
Cc1cc(/C=C2\Sc3ccccc3N2C)cc(C)[n+]1CC1CCCO1 (configuration not stated) | 9.00 | 
CN(C)c1cc(N/N=C/c2ccc(Cl)cc2)nc(N(C)C)n1 | 6.30 | 
CC(C)(C)c1ccc(-n2nc(C#N)c(Cl)cc2=O)cc1 | 6.12 | 
O=C(c1ccc(-c2ccccc2)c(F)c1)C1CCCN(CCO)C1 (configuration not stated) | 6.29 | 
Clc1ccccc1C(c1ccccc1)(c1ccccc1)n1ccnc1 | 6.84 | 
NC(C(=O)O)C1CC(Cl)=NO1 (configuration not stated) | 6.75 | 
O=C1C(=O)c2c(C(=O)c3ccccc3)coc2-c2ccccc21 | 5.90 | 
CN(C)CCCN=c1cc(-c2ccccc2)oc2ccc(Cl)cc12 | 5.78 | 

Compound | pEC50 | EC50
CCC(/C=C1\Sc2ccc(OC)cc2N1CCO)=C\c1sc2ccc(OC)cc2[n+]1CCO | 6.31 | 
CCC(C)(c1nnnn1-c1c(C)cccc1C)N(N=O)c1ccccc1Cl (configuration not stated) | 6.49 | 
COc1ccc(NC(=O)/C(Cl)=C(/Cl)S(=O)Cc2ccccc2Cl)cn1 (configuration not stated) | 6.62 | 
CCN(CC)CCOC(c1ccccc1)c1ccc(C)cc1 (configuration not stated) | 5.96 | 
CCn1nc(/C=C/c2ccccc2)nc2c(=O)n(C)c(=O)nc1-2 |  | > 5000 nM (inactive)
Nc1nn(-c2ccccc2)c(N)c1N=Nc1ccc2c(c1)OCO2 | 6.07 | 
CCOC(=O)c1c(-c2ccc(F)cc2)csc1NC(=O)CCN1CCOCC1 | 6.76 | 
CCOC(=O)N=Nc1c2ccccc2c2nc3no[nH]c3nc12 | 6.11 | 
Cc1ccc2nc3cc([N+](=O)[O-])cc([N+](=O)[O-])c3cc2c1 | 6.54 | 
O=[N+]([O-])c1ccc(NNC(=S)Nc2ccc(F)cc2)cc1 | 6.35 | 
N=c1c2c(n(Cc3ccccc3)c3c1CCC3)CCC2 | 7.08 | 
Cc1ccc2c(c1)c(=O)c1c3n2CCN(C(=O)CCl)C3CC1 (configuration not stated) | 5.71 | 
Cc1ccccc1-n1ncc2c([N+](=O)[O-])cc([N+](=O)[O-])cc21 | 7.22 | 
Clc1ccc2[nH]cc(-c3nnnn3-c3ccc4ccccc4c3)c2c1 | 5.81 | 
Cc1ccc2nc(Cl)c3nnnn3c2c1 | 6.12 | 
CC[n+]1c(/C=C/N(C)c2ccccc2)sc2ccc(Cl)cc21 | 6.76 | 
O=C(COc1ccccc1F)NC1CCN(Cc2ccccc2)CC1 | 6.85 | 
Cc1ccc(S(=O)(=O)c2ccc(Oc3cccc(C)c3)cc2)cc1 | 6.75 | 
N#CC(c1ccc(Cl)cc1)c1ccc2c(C(F)(F)F)cc(C(F)(F)F)nc2n1 (configuration not stated) | 6.25 | 
